Measurements from the NIST ThermoML archive (doi:10.1016/j.jct.2019.03.023).
Values joined by “and” are separate entries in the source; they are usually repeats but may differ in a detail not shown here. Equal values may be shown once.

Experiment: molar heat capacity at constant volume
Settings: Vacuum adiabatic calorimetry

CC(C)O [propan-2-ol]
Fluid (supercritical or subcritical phases)
Settings	molar heat capacity at constant volume
380.8 K, Mass density=697.69 kg/m3	187.08 J/K/mol
380.91 K, Mass density=697.69 kg/m3	187.8 J/K/mol
381.02 K, Mass density=697.69 kg/m3	186.29 J/K/mol
381.13 K, Mass density=697.69 kg/m3	184.61 J/K/mol
381.24 K, Mass density=697.69 kg/m3	185.39 J/K/mol
381.35 K, Mass density=697.69 kg/m3	184.49 J/K/mol
381.46 K, Mass density=697.69 kg/m3	184.01 J/K/mol
381.57 K, Mass density=697.69 kg/m3	184.67 J/K/mol
381.69 K, Mass density=697.69 kg/m3	184.97 J/K/mol
391.32 K, Mass density=329.2 kg/m3	243.38 J/K/mol
391.53 K, Mass density=329.2 kg/m3	248.85 J/K/mol
391.54 K, Mass density=329.2 kg/m3	243.44 J/K/mol
391.65 K, Mass density=329.2 kg/m3	246.93 J/K/mol
391.76 K, Mass density=329.2 kg/m3	235.69 J/K/mol
391.87 K, Mass density=329.2 kg/m3	241.16 J/K/mol
391.98 K, Mass density=329.2 kg/m3	242.54 J/K/mol
392.09 K, Mass density=329.2 kg/m3	244.11 J/K/mol
392.2 K, Mass density=329.2 kg/m3	243.2 J/K/mol
399.51 K, Mass density=343.1 kg/m3	235.93 J/K/mol
399.72 K, Mass density=343.1 kg/m3	235.93 J/K/mol
399.83 K, Mass density=343.1 kg/m3	239.24 J/K/mol
399.94 K, Mass density=343.1 kg/m3	242.54 J/K/mol
400.04 K, Mass density=343.1 kg/m3	236.05 J/K/mol
400.15 K, Mass density=343.1 kg/m3	239.36 J/K/mol
400.25 K, Mass density=343.1 kg/m3	239.42 J/K/mol
400.36 K, Mass density=343.1 kg/m3	239.42 J/K/mol
400.46 K, Mass density=343.1 kg/m3	236.23 J/K/mol
400.57 K, Mass density=343.1 kg/m3	239.54 J/K/mol
416.55 K, Mass density=329.2 kg/m3	258.83 J/K/mol
416.65 K, Mass density=329.2 kg/m3	260.09 J/K/mol
416.76 K, Mass density=329.2 kg/m3	252.52 J/K/mol
416.86 K, Mass density=329.2 kg/m3	257.99 J/K/mol
416.97 K, Mass density=329.2 kg/m3	255.76 J/K/mol
417.08 K, Mass density=329.2 kg/m3	261.47 J/K/mol
417.18 K, Mass density=329.2 kg/m3	252.94 J/K/mol
417.29 K, Mass density=329.2 kg/m3	253.84 J/K/mol
417.39 K, Mass density=329.2 kg/m3	259.73 J/K/mol
417.5 K, Mass density=329.2 kg/m3	261.17 J/K/mol
442.12 K, Mass density=329.2 kg/m3	262.92 J/K/mol
442.23 K, Mass density=329.2 kg/m3	265.86 J/K/mol
442.33 K, Mass density=329.2 kg/m3	272.53 J/K/mol
442.43 K, Mass density=329.2 kg/m3	265.68 J/K/mol
442.54 K, Mass density=329.2 kg/m3	266.76 J/K/mol
442.64 K, Mass density=329.2 kg/m3	267.6 J/K/mol
442.74 K, Mass density=329.2 kg/m3	270.13 J/K/mol
442.85 K, Mass density=329.2 kg/m3	265.86 J/K/mol
447.55 K, Mass density=581.06 kg/m3	250.9 J/K/mol
447.75 K, Mass density=581.06 kg/m3	250.96 J/K/mol
447.85 K, Mass density=581.06 kg/m3	250.96 J/K/mol
447.95 K, Mass density=581.06 kg/m3	253.06 J/K/mol
448.05 K, Mass density=581.06 kg/m3	255.1 J/K/mol
448.15 K, Mass density=581.06 kg/m3	251.08 J/K/mol
448.25 K, Mass density=581.06 kg/m3	251.08 J/K/mol
448.35 K, Mass density=581.06 kg/m3	253.18 J/K/mol
448.54 K, Mass density=581.06 kg/m3	253.06 J/K/mol
448.64 K, Mass density=581.06 kg/m3	255.16 J/K/mol
448.74 K, Mass density=581.06 kg/m3	253.12 J/K/mol
448.84 K, Mass density=581.06 kg/m3	251.14 J/K/mol
448.94 K, Mass density=581.06 kg/m3	253.18 J/K/mol
449.04 K, Mass density=581.06 kg/m3	253.24 J/K/mol
449.14 K, Mass density=581.06 kg/m3	255.28 J/K/mol
449.24 K, Mass density=581.06 kg/m3	253.3 J/K/mol
449.34 K, Mass density=581.06 kg/m3	253.3 J/K/mol
449.44 K, Mass density=581.06 kg/m3	253.3 J/K/mol
449.63 K, Mass density=581.06 kg/m3	251.56 J/K/mol
449.73 K, Mass density=581.06 kg/m3	253.6 J/K/mol
449.83 K, Mass density=581.06 kg/m3	255.7 J/K/mol
449.93 K, Mass density=581.06 kg/m3	255.7 J/K/mol
450.03 K, Mass density=581.06 kg/m3	251.62 J/K/mol
450.13 K, Mass density=581.06 kg/m3	249.63 J/K/mol
450.23 K, Mass density=581.06 kg/m3	255.82 J/K/mol
450.33 K, Mass density=581.06 kg/m3	253.78 J/K/mol
450.43 K, Mass density=581.06 kg/m3	253.78 J/K/mol
450.52 K, Mass density=581.06 kg/m3	253.84 J/K/mol
450.62 K, Mass density=581.06 kg/m3	253.54 J/K/mol
450.72 K, Mass density=581.06 kg/m3	251.86 J/K/mol
450.92 K, Mass density=581.06 kg/m3	253.72 J/K/mol
451.06 K, Mass density=581.06 kg/m3	251.62 J/K/mol
451.16 K, Mass density=581.06 kg/m3	252.94 J/K/mol
451.26 K, Mass density=581.06 kg/m3	249.63 J/K/mol
451.36 K, Mass density=581.06 kg/m3	249.63 J/K/mol
451.46 K, Mass density=581.06 kg/m3	249.69 J/K/mol
451.56 K, Mass density=581.06 kg/m3	249.69 J/K/mol
451.66 K, Mass density=581.06 kg/m3	251.8 J/K/mol
451.75 K, Mass density=581.06 kg/m3	250.3 J/K/mol
451.81 K, Mass density=581.06 kg/m3	247.95 J/K/mol
451.83 K, Mass density=581.06 kg/m3	250 J/K/mol and 186.78 J/K/mol
451.86 K, Mass density=581.06 kg/m3	181.85 J/K/mol
451.91 K, Mass density=581.06 kg/m3	175.18 J/K/mol
451.95 K, Mass density=581.06 kg/m3	179.26 J/K/mol
452.01 K, Mass density=581.06 kg/m3	174.52 J/K/mol

Settings	molar heat capacity at constant volume [J/K/mol]
451.83 K, Liquid	186.78
